# Test results as given in patent US9278083B2, “Methods for purifying trans-(−)-Δ9-tetrahydrocannabinol and trans-(+)-Δ9-tetrahydrocannabinol” (SVC Pharma LP, priority 2004, dated 2016).
# Test: Storage stability of crystalline (±)-Δ^9-THC at 25° C.
smiles,measurement,setting,value
"CCCCCc1cc(O)c2c(c1)OC(C)(C)[C@@H]1CCC(C)=C[C@@H]21 (racemic) [crystalline (±)-Δ^9-THC, (±)-Δ^9-THC]",Stability on storage,"off-white crystals of Example 17, at 25° C. in the presence of air and laboratory lighting",stable
same,Appearance (colour) on storage,"white crystalline solid of Example 15, after at least three days at 25° C.",remained white
